Measurements published in patent US20120115903A1, “Substituted Heteroaromatic Carboxamide and Urea Compounds as Vanilloid Receptor Ligands” (Gruenenthal GmbH, priority 2010, published 2012).

Key:
[1] = target: T1, vanilloid receptor 1 (VR1/TRPV1 receptor) (Mus musculus, UniProt Q704Y3); assay: FLIPR Ca2+ influx assay on vanilloid receptor 1, capsaicin stimulus (mouse); type: cell-based; conditions: Cap = capsaicin, Ki from IC50 by Cheng-Prusoff
T1 construct: expressed in transfected cells; host or cells: CHO K1 cells (inferred: method II; method I is described for rat DRG neurons only)
T1 sequence (Q704Y3 whole entry): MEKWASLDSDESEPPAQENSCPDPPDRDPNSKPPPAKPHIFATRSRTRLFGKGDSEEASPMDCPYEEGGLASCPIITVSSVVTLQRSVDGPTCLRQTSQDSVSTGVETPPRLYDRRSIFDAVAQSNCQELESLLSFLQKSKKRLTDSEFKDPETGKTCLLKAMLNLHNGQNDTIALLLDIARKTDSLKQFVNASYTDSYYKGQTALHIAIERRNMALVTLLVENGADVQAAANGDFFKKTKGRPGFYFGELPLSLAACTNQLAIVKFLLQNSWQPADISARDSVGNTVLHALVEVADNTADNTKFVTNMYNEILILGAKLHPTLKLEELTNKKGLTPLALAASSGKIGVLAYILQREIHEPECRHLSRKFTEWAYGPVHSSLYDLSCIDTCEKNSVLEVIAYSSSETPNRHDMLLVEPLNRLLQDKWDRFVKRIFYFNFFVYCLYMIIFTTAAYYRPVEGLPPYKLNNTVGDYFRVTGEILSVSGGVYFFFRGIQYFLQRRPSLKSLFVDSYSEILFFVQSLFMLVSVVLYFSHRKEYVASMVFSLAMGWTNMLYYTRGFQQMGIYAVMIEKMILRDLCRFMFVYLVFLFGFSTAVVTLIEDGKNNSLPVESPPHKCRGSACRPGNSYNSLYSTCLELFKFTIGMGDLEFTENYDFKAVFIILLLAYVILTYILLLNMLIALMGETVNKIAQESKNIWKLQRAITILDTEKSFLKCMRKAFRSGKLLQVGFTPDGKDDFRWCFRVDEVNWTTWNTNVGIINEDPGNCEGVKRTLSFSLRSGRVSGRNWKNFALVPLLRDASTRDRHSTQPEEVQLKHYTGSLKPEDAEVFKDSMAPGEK
Source text: The agonistic or antagonistic effect of the substances to be tested on the vanilloid receptor 1 (VR1) can also be determined using the following assay. In this assay, the influx of Ca^2+ through the channel is quantified with the aid of a Ca^2+-sensitive dye (type Fluo-4, Molecular Probes Europe BV, Leiden, the Netherlands) in a fluorescent imaging plate reader (FLIPR, Molecular Devices, Sunnyvale, USA).
Chinese hamster ovary cells (CHO K1 cells, European Collection of Cell Cultures (ECACC) United Kingdom) are stably transfected with the VR1 gene. […] The Ca^2+-dependent fluorescence is measured before and after the addition of the substances to be tested (λex wavelength=488 nm, λem=540 nm). Quantification is carried out by measuring the highest fluorescence intensity (FC, fluorescence counts) over time.
The FLIPR protocol consists of 2 substance additions. […] After 5 minutes' incubation, 100 nM of capsaicin are applied and the Ca^2+ influx is also determined. […]
Starting from the percentage displacement caused by different concentrations of the compounds to be tested of general formula I, IC50 inhibitory concentrations which cause a 50-percent displacement of capsaicin were calculated. […]
The affinity of the compounds according to the invention for the vanilloid receptor 1 (VR1/TRPV1 receptor) was determined as described hereinbefore (pharmacological methods I and II respectively). […]

[2] = target: T2, vanilloid receptor 1 (VR1/TRPV1 receptor) (Homo sapiens, UniProt Q8NER1); assay: FLIPR Ca2+ influx assay with CHO K1 cells transfected with the human VR1 gene, capsaicin stimulus; type: cell-based; conditions: Cap = capsaicin (100 nM), Ki from IC50 by Cheng-Prusoff, read-out: Ki (human being) [nM] Cap
T2 construct: expressed in transfected cells; host or cells: CHO K1 cells (ECACC), stably transfected
T2 sequence (Q8NER1 whole entry): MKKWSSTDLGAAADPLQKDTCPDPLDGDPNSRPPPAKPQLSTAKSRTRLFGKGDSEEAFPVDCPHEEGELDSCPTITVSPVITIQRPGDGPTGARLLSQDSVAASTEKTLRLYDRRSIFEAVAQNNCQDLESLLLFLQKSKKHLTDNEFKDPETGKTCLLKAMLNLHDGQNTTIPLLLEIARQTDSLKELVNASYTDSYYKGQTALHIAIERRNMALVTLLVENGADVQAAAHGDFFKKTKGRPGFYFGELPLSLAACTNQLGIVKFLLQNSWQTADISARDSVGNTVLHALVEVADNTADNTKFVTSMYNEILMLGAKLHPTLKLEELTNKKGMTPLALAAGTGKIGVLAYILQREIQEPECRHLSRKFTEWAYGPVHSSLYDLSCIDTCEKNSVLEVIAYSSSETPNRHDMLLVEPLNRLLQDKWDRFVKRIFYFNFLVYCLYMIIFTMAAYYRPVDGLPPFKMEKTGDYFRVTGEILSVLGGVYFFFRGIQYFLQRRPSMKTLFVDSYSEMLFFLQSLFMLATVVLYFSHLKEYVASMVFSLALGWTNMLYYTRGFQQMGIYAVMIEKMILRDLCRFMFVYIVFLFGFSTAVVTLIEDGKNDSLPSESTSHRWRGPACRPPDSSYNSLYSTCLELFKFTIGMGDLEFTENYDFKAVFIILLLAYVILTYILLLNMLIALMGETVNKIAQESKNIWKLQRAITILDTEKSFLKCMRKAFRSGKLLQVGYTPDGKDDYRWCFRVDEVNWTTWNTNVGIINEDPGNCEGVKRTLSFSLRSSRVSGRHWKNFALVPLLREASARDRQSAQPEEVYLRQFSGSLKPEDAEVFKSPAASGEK
Experimental: Furthermore, preference may be given to compounds according to the invention of general formula (I) that cause a 50 percent displacement of capsaicin, which is present at a concentration of 100 nM, in a FLIPR assay with CHO K1 cells which were transfected with the human VR1 gene at a concentration of less than 2,000 nM, preferably less than 1,000 nM, particularly preferably less than 300 nM, most particularly preferably less than 100 nM, even more preferably less than 75 nM, additionally preferably less than 50 nM, most preferably less than 10 nM. In the process, the Ca^2+ influx is quantified in the FLIPR assay with the aid of a Ca^2+-sensitive dye (type Fluo-4, Molecular Probes Europe BV, Leiden, the Netherlands) in a fluorescent imaging plate reader (FLIPR, Molecular Devices, Sunnyvale, USA), as described hereinafter. The agonistic or antagonistic effect of the substances to be tested on the vanilloid receptor 1 (VR1) can also be determined using the following assay. In this assay, the influx of Ca^2+ through the channel is quantified with the aid of a Ca^2+-sensitive dye (type Fluo-4, Molecular Probes Europe BV, Leiden, the Netherlands) in a fluorescent imaging plate reader (FLIPR, Molecular Devices, Sunnyvale, USA). Chinese hamster ovary cells (CHO K1 cells, European Collection of Cell Cultures (ECACC) United Kingdom) are stably transfected with the VR1 gene. For functional testing, these cells are plated out on poly-D-lysine-coated black 96-well plates having a clear base (BD Biosciences, Heidelberg, Germany) at a density of 25,000 cells/well. The cells are incubated overnight at 37° C. and 5% CO2 in a culture medium (Ham's F12 nutrient mixture, 10% by volume of FCS (foetal calf serum), 18 μg/ml of L-proline). The next day the cells are incubated with Fluo-4 (Fluo-4 2 μM, 0.01% by volume of Pluronic F127, Molecular Probes in HBSS (Hank's buffered saline solution), Gibco Invitrogen GmbH, Karlsruhe, Germany) for 30 minutes at 37° C. Subsequently, the plates are washed three times with HBSS buffer and after further incubation for 15 minutes at RT used for Ca^2+ measurement in a FLIPR assay. The Ca^2+-dependent fluorescence is measured before and after the addition of the substances to be tested (λex wavelength=488 nm, λem=540 nm). Quantification is carried out by measuring the highest fluorescence intensity (FC, fluorescence counts) over time. The FLIPR protocol consists of 2 substance additions. First the compounds to be tested (10 μM) are pipetted onto the cells and the Ca^2+ influx is compared with the control (capsaicin 10 μM) (% activation based on the Ca^2+ signal after the addition of 10 μM of capsaicin). After 5 minutes' incubation, 100 nM of capsaicin are applied and the Ca^2+ influx is also determined. Desensitising agonists and antagonists led to suppression of the Ca^2+ influx. The % inhibition is calculated compared to the maximum achievable inhibition with 10 μM of capsaicin. Starting from the percentage displacement caused by different concentrations of the compounds to be tested of general formula I, IC50 inhibitory concentrations which cause a 50-percent displacement of capsaicin were calculated. K, values for the test substances were obtained by conversion by means of the Cheng-Prusoff equation (Cheng, Prusoff; Biochem. Pharmacol. 22, 3099-3108, 1973). The affinity of the compounds according to the invention for the vanilloid receptor 1 (VR1/TRPV1 receptor) was determined as described hereinbefore (pharmacological methods I and II respectively). The compounds according to the invention of the above-indicated formula (I) display outstanding affinity to the VR1/TRPV1 receptor (Table 1.).

- Ki [1]: 4.8 nM
- Ki [2]: 0.4 nM
Structure (SMILES): CC(C(=O)NCc1cc(C(F)(F)F)nn1-c1cccc(Cl)c1)c1cn(C)c2ccc(O)cc12 (centres unmarked) [Example 10, N-((1-(3-chlorophenyl)-3-(trifluoromethyl)-1H-pyrazol-5-yl)methyl)-2-(5-hydroxy-1-methyl-1H-indol-3-yl)propanamide]
